# Experimental data: publication PMC10518255, “A first-in-class pan-lysyl oxidase inhibitor impairs stromal remodeling and enhances gemcitabine response and survival in pancreatic cancer” (Nature Cancer, 2023)
# Values joined by “and” are separate entries in the source; they are usually repeats but may differ in a detail not shown here. Equal values may be shown once.
# Assays:
# [1] = tested on: KPC CCs liver colonization; assay: Intrasplenic model of liver colonization, early administration of treatment; type: in vivo, mouse; settings: for metastases/mm2: early administration, individual animals; for number of metastatic foci in liver / size of metastatic foci in liver: treatment from day 1 until day 10
# Description: (§1) Fig. 5 PXS-5505 administered in intrasplenic models of liver colonization. a, Schematic of the intrasplenic model of liver colonization with early administration of treatment. CCs were implanted into the spleen of BALB/c-Fox1nuAusb mice under anesthesia on day 0. Treatment with 0.9% saline (vehicle); twice-weekly Gem (100 mg kg^−1 i.p.) (Gem); daily PXS-5505 at 20 mg kg^−1 i.p. (PXS-5505) or daily PXS-5505 at 20 mg kg^−1 i.p. + twice-weekly Gem at 100 mg kg^−1 i.p. (PXS-5505 + Gem) was administered from day 1. At the end point (day 10) livers were collected and H&E-stained for scoring. Representative images of H&E-stained liver (taken from one biologically independent animal). Scale bar, 100 μm. b, Representative images of H&E-stained livers from each treatment group (n = 1 FOV taken from one biologically independent animal per group). Scale bars, 100 μm. c, Quantification of metastases per mm^2 (n = 9 biologically independent animals per group). Data are mean ± s.d. […] Data are mean ± s.d. Two-tailed P values were determined by an unpaired, nonparametric t-test with a Mann–Whitney U-test correction (comparison between two groups). e, Schematic of intrasplenic model of liver colonization with late administration of treatment. CCs were implanted into the spleen of BALB/c-Fox1nuAusb mice under anesthesia on day 0. Treatment with 0.9% saline (vehicle); twice-weekly Gem (100 mg kg^−1 i.p.) (Gem); daily PXS-5505 at 20 mg kg^−1 i.p. (PXS-5505); or daily PXS-5505 at 20 mg kg^−1 i.p. + three doses of Gem (100 mg kg^−1 i.p. (PXS-5505 + Gem) was administered from day 4. Representative images of H&E-stained liver (taken from one biologically independent animal). Scale bar, 100 μm. f, Quantification of metastases at endpoint (n = 10 biologically independent animals per treatment group, n = 5 biologically independent animals at day 4 for confirmation of overt metastases). Data are mean ± s.d. P values were determined by an unpaired, nonparametric t-test with a Mann–Whitney U-test correction (comparison between two groups). g, Representative images of H&E-stained livers from each treatment group. Scale bars, 100 μm. Source data
# (§2) For the intrasplenic models, animals were randomized before receiving treatment. GLP-grade PXS-5505 (20 mg kg^−1) was administered daily i.p. (starting day 0 for the early stage and day 4 for the late stage) until the end point and gemcitabine (100 mg kg^−1) was administered on days 3, 6 and 9 for the early stage and days 5, 7 and 10 for the late stage.
# KPC CCs (5 × 10^5 cells per mouse in 50 μl Hanks balanced saline solution) were slowly injected into the spleens of 8-week-old female BALB/c-Fox1nuAusb mice under anesthesia (isoflurane […], O2 1 l min^−1 with vacuum) as previous described. For the duration of the study mice were kept in conventional caging with environmental enrichment, access to standard chow, water ad libitum and 12-h light–dark cycle at ambient temperature and humidity. For intrasplenic studies, mice were culled at defined end points (10 d for early colonization studies and 11 d for late colonization studies). Animals with non-tumor-related complications that led to a premature end point were censored. At the end point, mice were imaged by whole-body bioluminescent imaging using an IVIS Spectrum (Caliper LS), culled and livers were removed for additional bioluminescent imaging before formalin fixing and paraffin embedding.
# The 4-µm formalin-fixed paraffin-embedded (FFPE) sections were cut and stained for H&E following standard histopathology methodologies or stained for CK19 using the Bond RX H2(30) protocol detailed above. Whole liver sections were then digitized on an Aperio slide scanner for blinded analysis. The total number of liver metastases were quantified and determined using QuPath[57].
# [2] = tested on: KPC CCs liver colonization; assay: Intrasplenic model of liver colonization, late administration of treatment (established metastases); type: in vivo, mouse; settings: for Quantification of metastases/mm2 (late administration): Figure 5F, intrasplenic liver colonization, individual animals; for metastatic burden in liver: treatment from day 4, established metastases
# Description: as §1
# as §2, with “stage. […]” for “stage.”
# The 4-µm formalin-fixed paraffin-embedded (FFPE) sections were cut and stained for H&E following standard histopathology methodologies or stained for CK19 using the Bond RX H2(30) protocol detailed above. […] The total number of liver metastases were quantified and determined using QuPath[57].
compound,measurement,setting,value
"Nc1ccn([C@@H]2O[C@H](CO)[C@@H](O)C2(F)F)c(=O)n1 [Gem, gemcitabine]",metastases/mm2,[1],1.138e-5 /mm2 and 9.508e-5 /mm2 and 3.779e-5 /mm2 and 0 /mm2 and 1.36e-5 /mm2 and 7.872e-6 /mm2 and 6.17e-6 /mm2
same,number of metastatic foci in liver,[1],fewer
same,size of metastatic foci in liver,[1],smaller
same,Quantification of metastases/mm2 (late administration),[2],0.001632 metastases/mm2 and 0.001329 metastases/mm2 and 0.001736 metastases/mm2 and 0.001305 metastases/mm2 and 0.001793 metastases/mm2 and 0.001126 metastases/mm2 and 0.001529 metastases/mm2 and 0.001107 metastases/mm2 and 0.001352 metastases/mm2 and 0.001209 metastases/mm2
same,metastatic burden in liver,[2],did not significantly alter metastatic burden
"Cl.Cl.NC/C=C(\F)CS(=O)(=O)c1cccc2cccnc12.O [PXS-5505, (Z)-3-fluoro-4-(quinolin-8-ylsulfonyl)but-2-en-1-amine dihydrochloride monohydrate]",metastases/mm2,[1],0.0002211 /mm2 and 8.732e-6 /mm2 and 2.758e-6 /mm2 and 0.0001431 /mm2 and 0.0002677 /mm2 and 0.0002826 /mm2 and 0.0003511 /mm2 and 0.0007717 /mm2 and 3.2079e-5 /mm2
same,number of metastatic foci in liver,[1],small decrease in number
same,size of metastatic foci in liver,[1],not size of metastatic foci
same,Quantification of metastases/mm2 (late administration),[2],0.001672 metastases/mm2 and 0.001212 metastases/mm2 and 0.001664 metastases/mm2 and 0.001776 metastases/mm2 and 0.002261 metastases/mm2 and 0.001845 metastases/mm2 and 0.0007878 metastases/mm2 and 0.001204 metastases/mm2 and 0.001477 metastases/mm2 and 0.001663 metastases/mm2
same,metastatic burden in liver,[2],did not significantly alter metastatic burden
